In ChEMBL document CHEMBL3862012, “Methylene versus carbonyl bridge in the structure of new tubulin polymerization inhibitors with tricyclic A-rings” (Bioorg Med Chem, 2016):

Species: Ovis aries
Assay: Inhibition of sheep brain tubulin polymerization at 100 uM by DAPI staining-based fluorimetric method relative to control
Conditions: not given

Q: With COc1ccc(CN2c3ccccc3CCc3ccccc32)cc1F as the compound, how does the inhibition read?
A: 58%

Tested on: not listed separately
Assay: Cytotoxicity against human CCRF-CEM cells assessed as growth inhibition at 10 uM after 48 hrs by SRB assay relative to control
Format: functional
Conditions: read-out: GI

Q: With COc1ccc(CN2c3ccccc3CCc3ccccc32)cc1F as the compound, how does the inhibition of growth at 10 µM read?
A: 96%

Tested on: not listed separately
Assay: Cytotoxicity against human HL-60(TB) cells assessed as growth inhibition at 10 uM after 48 hrs by SRB assay relative to control
Format: functional
Conditions: HL-60, 48 h, read-out: GI

Q: Which inhibition of growth at 10 µM does the source give for COc1ccc(CN2c3ccccc3CCc3ccccc32)cc1F here?
A: 100%

Tested on: not listed separately
Assay: Cytotoxicity against human MOLT4 cells assessed as growth inhibition at 10 uM after 48 hrs by SRB assay relative to control
Format: functional
Conditions: MOLT-4, 48 h, read-out: GI

Q: For COc1ccc(CN2c3ccccc3CCc3ccccc32)cc1F, which inhibition of growth at 10 µM is on record?
A: 84%

Tested on: not listed separately
Assay: Cytotoxicity against human SR cells assessed as growth inhibition at 10 uM after 48 hrs by SRB assay relative to control
Format: functional
Conditions: read-out: GI

Q: Which inhibition of growth at 10 µM does the source give for COc1ccc(CN2c3ccccc3CCc3ccccc32)cc1F here?
A: 88%

Tested on: not listed separately
Assay: Cytotoxicity against human A549 cells assessed as growth inhibition at 10 uM after 48 hrs by SRB assay relative to control
Format: functional
Conditions: A549, 48 h, read-out: GI

Q: With COc1ccc(CN2c3ccccc3CCc3ccccc32)cc1F as the compound, how does the inhibition of growth at 10 µM read?
A: 79%

Tested on: not listed separately
Assay: Cytotoxicity against human EKVX cells assessed as growth inhibition at 10 uM after 48 hrs by SRB assay relative to control
Format: functional
Conditions: read-out: GI

Q: With COc1ccc(CN2c3ccccc3CCc3ccccc32)cc1F as the compound, how does the inhibition of growth at 10 µM read?
A: 59%

Tested on: not listed separately
Assay: Cytotoxicity against human HOP62 cells assessed as growth inhibition at 10 uM after 48 hrs by SRB assay relative to control
Format: functional
Conditions: HOP-62, 48 h, read-out: GI

Q: Which inhibition of growth at 10 µM does the source give for COc1ccc(CN2c3ccccc3CCc3ccccc32)cc1F here?
A: 63%

Tested on: not listed separately
Assay: Cytotoxicity against human HOP92 cells assessed as growth inhibition at 10 uM after 48 hrs by SRB assay relative to control
Format: functional
Conditions: HOP-92, 48 h, read-out: GI

Q: Which inhibition of growth at 10 µM does the source give for COc1ccc(CN2c3ccccc3CCc3ccccc32)cc1F here?
A: 64%

Tested on: not listed separately
Assay: Cytotoxicity against human NCI-H226 cells assessed as growth inhibition at 10 uM after 48 hrs by SRB assay relative to control
Format: functional
Conditions: NCI-H226, 48 h, read-out: GI

Q: Which inhibition of growth at 10 µM does the source give for COc1ccc(CN2c3ccccc3CCc3ccccc32)cc1F here?
A: 47%

Tested on: not listed separately
Assay: Cytotoxicity against human NCI-H23 cells assessed as growth inhibition at 10 uM after 48 hrs by SRB assay relative to control
Format: functional
Conditions: NCI-H23, 48 h, read-out: GI

Q: Which inhibition of growth at 10 µM does the source give for COc1ccc(CN2c3ccccc3CCc3ccccc32)cc1F here?
A: 61%

Tested on: not listed separately
Assay: Cytotoxicity against human NCI-H322M cells assessed as growth inhibition at 10 uM after 48 hrs by SRB assay relative to control
Format: functional
Conditions: read-out: GI

Q: With COc1ccc(CN2c3ccccc3CCc3ccccc32)cc1F as the compound, how does the inhibition of growth at 10 µM read?
A: 42%

Tested on: not listed separately
Assay: Cytotoxicity against human NCI-H460 cells assessed as growth inhibition at 10 uM after 48 hrs by SRB assay relative to control
Format: functional
Conditions: NCI-H460, 48 h, read-out: GI

Q: Which inhibition of growth at 10 µM does the source give for COc1ccc(CN2c3ccccc3CCc3ccccc32)cc1F here?
A: 93%

Tested on: not listed separately
Assay: Cytotoxicity against human HCT116 cells assessed as growth inhibition at 10 uM after 48 hrs by SRB assay relative to control
Format: functional
Conditions: HCT-116, 48 h, read-out: GI

Q: Which inhibition of growth at 10 µM does the source give for COc1ccc(CN2c3ccccc3CCc3ccccc32)cc1F here?
A: 98%

Tested on: not listed separately
Assay: Cytotoxicity against human KM12 cells assessed as growth inhibition at 10 uM after 48 hrs by SRB assay relative to control
Format: functional
Conditions: KM12, 48 h, read-out: GI

Q: For COc1ccc(CN2c3ccccc3CCc3ccccc32)cc1F, which inhibition of growth at 10 µM is on record?
A: 83%

Tested on: not listed separately
Assay: Cytotoxicity against human SF295 cells assessed as growth inhibition at 10 uM after 48 hrs by SRB assay relative to control
Format: functional
Conditions: SF-295, 48 h, read-out: GI

Q: With COc1ccc(CN2c3ccccc3CCc3ccccc32)cc1F as the compound, how does the inhibition of growth at 10 µM read?
A: 88%

Tested on: not listed separately
Assay: Cytotoxicity against human SF539 cells assessed as growth inhibition at 10 uM after 48 hrs by SRB assay relative to control
Format: functional
Conditions: SF-539, 48 h, read-out: GI

Q: Which inhibition of growth at 10 µM does the source give for COc1ccc(CN2c3ccccc3CCc3ccccc32)cc1F here?
A: 100%

Tested on: not listed separately
Assay: Cytotoxicity against human SNB75 cells assessed as growth inhibition at 10 uM after 48 hrs by SRB assay relative to control
Format: functional
Conditions: SNB-75, 48 h, read-out: GI

Q: For COc1ccc(CN2c3ccccc3CCc3ccccc32)cc1F, which inhibition of growth at 10 µM is on record?
A: 77%

Tested on: not listed separately
Assay: Cytotoxicity against human U251 cells assessed as growth inhibition at 10 uM after 48 hrs by SRB assay relative to control
Format: functional
Conditions: U-251, 48 h, read-out: GI

Q: For COc1ccc(CN2c3ccccc3CCc3ccccc32)cc1F, which inhibition of growth at 10 µM is on record?
A: 79%

Tested on: not listed separately
Assay: Cytotoxicity against human MALME-3M cells assessed as growth inhibition at 10 uM after 48 hrs by SRB assay relative to control
Format: functional
Conditions: read-out: GI

Q: For COc1ccc(CN2c3ccccc3CCc3ccccc32)cc1F, which inhibition of growth at 10 µM is on record?
A: 16%

Tested on: not listed separately
Assay: Cytotoxicity against human M14 cells assessed as growth inhibition at 10 uM after 48 hrs by SRB assay relative to control
Format: functional
Conditions: M14, 48 h, read-out: GI

Q: For COc1ccc(CN2c3ccccc3CCc3ccccc32)cc1F, which inhibition of growth at 10 µM is on record?
A: 100%

Tested on: not listed separately
Assay: Cytotoxicity against human MDA-MB-435 cells assessed as growth inhibition at 10 uM after 48 hrs by SRB assay relative to control
Format: functional
Conditions: MDA-MB-435, 48 h, read-out: GI

Q: Which inhibition of growth at 10 µM does the source give for COc1ccc(CN2c3ccccc3CCc3ccccc32)cc1F here?
A: 100%

Tested on: not listed separately
Assay: Cytotoxicity against human OVCAR3 cells assessed as growth inhibition at 10 uM after 48 hrs by SRB assay relative to control
Format: functional
Conditions: OVCAR-3, 48 h, read-out: GI

Q: Which inhibition of growth at 10 µM does the source give for COc1ccc(CN2c3ccccc3CCc3ccccc32)cc1F here?
A: 100%

Tested on: not listed separately
Assay: Cytotoxicity against human NCI-ADR-RES cells assessed as growth inhibition at 10 uM after 48 hrs by SRB assay relative to control
Format: functional
Conditions: read-out: GI

Q: Which inhibition of growth at 10 µM does the source give for COc1ccc(CN2c3ccccc3CCc3ccccc32)cc1F here?
A: 89%

Tested on: not listed separately
Assay: Cytotoxicity against human SKOV3 cells assessed as growth inhibition at 10 uM after 48 hrs by SRB assay relative to control
Format: functional
Conditions: SK-OV-3, 48 h, read-out: GI

Q: With COc1ccc(CN2c3ccccc3CCc3ccccc32)cc1F as the compound, how does the inhibition of growth at 10 µM read?
A: 62%

Tested on: not listed separately
Assay: Cytotoxicity against human 786-0 cells assessed as growth inhibition at 10 uM after 48 hrs by SRB assay relative to control
Format: functional
Conditions: 786-0, 48 h, read-out: GI

Q: Which inhibition of growth at 10 µM does the source give for COc1ccc(CN2c3ccccc3CCc3ccccc32)cc1F here?
A: 66%

Tested on: not listed separately
Assay: Cytotoxicity against human A498 cells assessed as growth inhibition at 10 uM after 48 hrs by SRB assay relative to control
Format: functional
Conditions: A498, 48 h, read-out: GI

Q: Which inhibition of growth at 10 µM does the source give for COc1ccc(CN2c3ccccc3CCc3ccccc32)cc1F here?
A: 100%

Tested on: not listed separately
Assay: Cytotoxicity against human Caki1 cells assessed as growth inhibition at 10 uM after 48 hrs by SRB assay relative to control
Format: functional
Conditions: CAKI-1, 48 h, read-out: GI

Q: With COc1ccc(CN2c3ccccc3CCc3ccccc32)cc1F as the compound, how does the inhibition of growth at 10 µM read?
A: 70%

Tested on: not listed separately
Assay: Cytotoxicity against human RXF393 cells assessed as growth inhibition at 10 uM after 48 hrs by SRB assay relative to control
Format: functional
Conditions: RXF 393, 48 h, read-out: GI

Q: For COc1ccc(CN2c3ccccc3CCc3ccccc32)cc1F, which inhibition of growth at 10 µM is on record?
A: 82%

Tested on: not listed separately
Assay: Cytotoxicity against human TK10 cells assessed as growth inhibition at 10 uM after 48 hrs by SRB assay relative to control
Format: functional
Conditions: TK-10, 48 h, read-out: GI

Q: With COc1ccc(CN2c3ccccc3CCc3ccccc32)cc1F as the compound, how does the inhibition of growth at 10 µM read?
A: 37%

Tested on: not listed separately
Assay: Cytotoxicity against human UO31 cells assessed as growth inhibition at 10 uM after 48 hrs by SRB assay relative to control
Format: functional
Conditions: UO-31, 48 h, read-out: GI

Q: With COc1ccc(CN2c3ccccc3CCc3ccccc32)cc1F as the compound, how does the inhibition of growth at 10 µM read?
A: 57%

Tested on: not listed separately
Assay: Cytotoxicity against human PC3 cells assessed as growth inhibition at 10 uM after 48 hrs by SRB assay relative to control
Format: functional
Conditions: PC-3, 48 h, read-out: GI

Q: Which inhibition of growth at 10 µM does the source give for COc1ccc(CN2c3ccccc3CCc3ccccc32)cc1F here?
A: 76%

Tested on: not listed separately
Assay: Cytotoxicity against human DU145 cells assessed as growth inhibition at 10 uM after 48 hrs by SRB assay relative to control
Format: functional
Conditions: DU-145, 48 h, read-out: GI

Q: With COc1ccc(CN2c3ccccc3CCc3ccccc32)cc1F as the compound, how does the inhibition of growth at 10 µM read?
A: 91%

Tested on: not listed separately
Assay: Cytotoxicity against human MCF7 cells assessed as growth inhibition at 10 uM after 48 hrs by SRB assay relative to control
Format: functional
Conditions: MCF7, 48 h, read-out: GI

Q: Which inhibition of growth at 10 µM does the source give for COc1ccc(CN2c3ccccc3CCc3ccccc32)cc1F here?
A: 80%

Tested on: not listed separately
Assay: Cytotoxicity against human MDA-MB-231 cells assessed as growth inhibition at 10 uM after 48 hrs by SRB assay relative to control
Format: functional
Conditions: MDA-MB-231, 48 h, read-out: GI

Q: Which inhibition of growth at 10 µM does the source give for COc1ccc(CN2c3ccccc3CCc3ccccc32)cc1F here?
A: 83%

Tested on: not listed separately
Assay: Cytotoxicity against human BT549 cells assessed as growth inhibition at 10 uM after 48 hrs by SRB assay relative to control
Format: functional
Conditions: BT-549, 48 h, read-out: GI

Q: With COc1ccc(CN2c3ccccc3CCc3ccccc32)cc1F as the compound, how does the inhibition of growth at 10 µM read?
A: 46%

Tested on: not listed separately
Assay: Cytotoxicity against human T47D cells assessed as growth inhibition at 10 uM after 48 hrs by SRB assay relative to control
Format: functional
Conditions: read-out: GI

Q: Which inhibition of growth at 10 µM does the source give for COc1ccc(CN2c3ccccc3CCc3ccccc32)cc1F here?
A: 53%

Tested on: not listed separately
Assay: Cytotoxicity against human MDA-MB-468 cells assessed as growth inhibition at 10 uM after 48 hrs by SRB assay relative to control
Format: functional
Conditions: MDA-MB-468, 48 h, read-out: GI

Q: With COc1ccc(CN2c3ccccc3CCc3ccccc32)cc1F as the compound, how does the inhibition of growth at 10 µM read?
A: 96%
